In patent US12187742B2 (XRAD Therapeutics, Inc., priority 2018, dated 2025):
Where a name gives a salt, the structure may show the parent alone.

Target: ATM (Homo sapiens (Human), UniProt Q13315)
Assay: ATM in Cell Western Assay (pKAP1 in etoposide-treated MCF-7 cells)
Type: cell-based
Conditions: pKAP1 in etoposide-treated MCF-7 cells
In short: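 Cells received compounds in a 10-dose, 3-fold series from a 1 μM final top concentration, then 100 μM etoposide, for 1 hr at 37° C. They were then fixed with paraformaldehyde and permeabilized with 0.1% Triton X-100. After immunostaining, plates were scanned on an infrared imager.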

ATM, sequence (Q13315 whole entry): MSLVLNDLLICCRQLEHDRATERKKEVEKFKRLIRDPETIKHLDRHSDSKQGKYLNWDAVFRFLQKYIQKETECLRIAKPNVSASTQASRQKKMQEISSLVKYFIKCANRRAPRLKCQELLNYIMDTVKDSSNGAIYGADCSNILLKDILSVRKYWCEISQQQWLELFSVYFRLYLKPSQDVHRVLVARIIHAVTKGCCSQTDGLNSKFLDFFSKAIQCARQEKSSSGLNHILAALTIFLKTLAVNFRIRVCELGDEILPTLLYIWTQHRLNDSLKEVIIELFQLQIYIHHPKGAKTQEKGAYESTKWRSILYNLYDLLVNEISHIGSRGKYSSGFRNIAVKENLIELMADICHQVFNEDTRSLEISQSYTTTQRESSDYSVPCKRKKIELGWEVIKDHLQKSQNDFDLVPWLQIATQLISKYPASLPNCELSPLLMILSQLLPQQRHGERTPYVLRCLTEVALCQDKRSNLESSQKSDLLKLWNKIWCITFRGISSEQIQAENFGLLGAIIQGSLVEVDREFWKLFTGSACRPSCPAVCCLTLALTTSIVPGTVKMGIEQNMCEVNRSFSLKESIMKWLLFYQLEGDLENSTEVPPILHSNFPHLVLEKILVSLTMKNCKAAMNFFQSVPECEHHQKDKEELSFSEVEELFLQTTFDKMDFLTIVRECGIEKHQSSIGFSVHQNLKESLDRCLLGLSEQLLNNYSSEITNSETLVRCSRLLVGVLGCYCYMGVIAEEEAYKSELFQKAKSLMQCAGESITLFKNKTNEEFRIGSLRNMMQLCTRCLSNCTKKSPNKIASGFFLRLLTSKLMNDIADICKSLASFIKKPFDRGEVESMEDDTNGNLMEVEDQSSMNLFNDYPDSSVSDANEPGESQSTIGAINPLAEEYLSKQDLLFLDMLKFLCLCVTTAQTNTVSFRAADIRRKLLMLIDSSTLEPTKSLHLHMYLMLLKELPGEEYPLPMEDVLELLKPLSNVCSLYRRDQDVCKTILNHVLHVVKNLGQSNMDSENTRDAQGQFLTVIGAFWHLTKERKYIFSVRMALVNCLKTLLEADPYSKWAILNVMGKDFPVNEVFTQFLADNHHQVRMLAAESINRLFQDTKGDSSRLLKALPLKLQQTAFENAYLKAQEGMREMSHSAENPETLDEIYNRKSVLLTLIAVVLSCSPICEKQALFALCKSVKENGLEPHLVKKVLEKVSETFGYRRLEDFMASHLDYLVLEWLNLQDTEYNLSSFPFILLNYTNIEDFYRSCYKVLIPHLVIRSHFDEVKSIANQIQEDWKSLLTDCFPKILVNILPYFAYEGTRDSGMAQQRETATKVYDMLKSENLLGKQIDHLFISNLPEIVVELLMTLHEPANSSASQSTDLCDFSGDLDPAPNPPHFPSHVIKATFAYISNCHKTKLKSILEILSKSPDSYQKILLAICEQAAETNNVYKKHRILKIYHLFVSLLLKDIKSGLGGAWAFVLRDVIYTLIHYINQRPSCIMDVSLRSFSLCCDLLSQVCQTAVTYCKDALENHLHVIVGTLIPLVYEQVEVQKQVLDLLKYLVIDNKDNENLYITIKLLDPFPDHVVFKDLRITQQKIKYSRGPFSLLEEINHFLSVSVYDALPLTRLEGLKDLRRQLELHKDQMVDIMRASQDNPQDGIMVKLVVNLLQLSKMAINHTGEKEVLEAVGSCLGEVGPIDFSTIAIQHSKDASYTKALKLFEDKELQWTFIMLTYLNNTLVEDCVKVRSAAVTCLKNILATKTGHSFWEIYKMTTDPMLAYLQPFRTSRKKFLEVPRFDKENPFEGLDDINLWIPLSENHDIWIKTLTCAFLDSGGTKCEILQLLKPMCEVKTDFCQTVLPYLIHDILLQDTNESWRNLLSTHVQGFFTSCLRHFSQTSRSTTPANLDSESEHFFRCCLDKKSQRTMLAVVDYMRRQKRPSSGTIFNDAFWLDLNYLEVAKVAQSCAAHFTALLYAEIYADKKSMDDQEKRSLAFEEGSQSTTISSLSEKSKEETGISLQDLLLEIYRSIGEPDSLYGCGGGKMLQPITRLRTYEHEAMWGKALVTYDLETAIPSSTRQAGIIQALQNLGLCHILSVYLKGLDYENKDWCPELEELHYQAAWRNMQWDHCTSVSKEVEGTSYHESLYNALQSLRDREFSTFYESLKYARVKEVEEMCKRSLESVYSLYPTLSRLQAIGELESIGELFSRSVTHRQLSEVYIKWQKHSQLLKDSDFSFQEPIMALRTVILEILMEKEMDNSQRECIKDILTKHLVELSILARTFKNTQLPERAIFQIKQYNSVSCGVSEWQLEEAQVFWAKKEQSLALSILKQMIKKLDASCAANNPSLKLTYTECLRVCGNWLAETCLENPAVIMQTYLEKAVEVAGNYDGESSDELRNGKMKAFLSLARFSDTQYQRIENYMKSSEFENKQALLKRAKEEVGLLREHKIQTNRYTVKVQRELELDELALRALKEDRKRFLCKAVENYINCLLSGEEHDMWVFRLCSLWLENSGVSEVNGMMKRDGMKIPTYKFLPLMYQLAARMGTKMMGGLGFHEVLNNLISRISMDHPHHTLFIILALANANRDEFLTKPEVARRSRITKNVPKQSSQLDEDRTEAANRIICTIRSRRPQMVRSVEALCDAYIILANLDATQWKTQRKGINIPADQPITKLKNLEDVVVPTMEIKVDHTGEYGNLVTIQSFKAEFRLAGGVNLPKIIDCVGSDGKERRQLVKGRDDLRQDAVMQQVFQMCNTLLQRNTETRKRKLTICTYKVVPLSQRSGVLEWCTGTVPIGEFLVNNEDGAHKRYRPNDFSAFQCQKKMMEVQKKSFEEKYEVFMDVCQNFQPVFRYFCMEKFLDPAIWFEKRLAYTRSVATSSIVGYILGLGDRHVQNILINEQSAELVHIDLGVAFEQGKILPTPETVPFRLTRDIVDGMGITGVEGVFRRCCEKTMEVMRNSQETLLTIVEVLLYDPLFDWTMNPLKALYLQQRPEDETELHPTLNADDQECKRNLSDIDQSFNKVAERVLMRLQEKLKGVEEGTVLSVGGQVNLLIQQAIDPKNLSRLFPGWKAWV

IC50, 0.001 to 0.1 µM:
CC(C)NCCOc1ncc(-c2cc3c(cc2F)ncc2c3[C@]3(C[C@@H](N4CCCC4)C3)C(=O)N2C)cc1NS(C)(=O)=O [Example 468, trans-N-(5-(7′-Fluoro-3′-methyl-2′-oxo-3-(pyrrolidin-1-yl)-2′,3′-dihydrospiro[cyclobutane-1,1′-pyrrolo[2,3-c]quinolin]-8′-yl)-2-(2-(isopropylamino)ethoxy)pyridin-3-yl)methanesulfonamide]
CC(C)NCCOc1ncc(-c2cc3c(cc2F)ncc2c3[C@]3(C[C@H](N4CCCCC4)C3)C(=O)N2C)cc1NS(C)(=O)=O [Example 469, cis-N-(5-(7′-Fluoro-3′-methyl-2′-oxo-3-(piperidin-1-yl)-2′,3′-dihydrospiro[cyclobutane-1,1′-pyrrolo[2,3-c]quinolin]-8′-yl)-2-(2-(isopropylamino)ethoxy)pyridin-3-yl)methanesulfonamide]
CC(C)NCCOc1ncc(-c2cc3c(cc2F)ncc2c3[C@]3(C[C@@H](N4CCCCC4)C3)C(=O)N2C)cc1NS(C)(=O)=O [Example 470, trans-N-{5-(7′-Fluoro-3′-methyl-2′-oxo-3-(piperidin-1-yl)-2′,3′-dihydrospiro[cyclobutane-1,1′-pyrrolo[2,3-c]quinolin]-8′-yl)-2-(2-(isopropylamino)ethoxy)pyridin-3-yl)methanesulfonamide hydrochloride]
CC(C)NCCOc1ncc(-c2cc3c(cc2F)ncc2c3[C@]3(C[C@H](N4CCOCC4)C3)C(=O)N2C)cc1NS(C)(=O)=O [Example 471, cis-N-(5-(7′-Fluoro-3′-methyl-3-morpholino-2-oxo-2′,3′-dihydrospiro[cyclobutane-1,1′-pyrrolo[2,3-c]quinolin]-8′-yl)-2-(2-(isopropylamino)ethoxy)pyridin-3-yl)methanesulfonamide]
CN[C@H]1C[C@@]2(C1)C(=O)N(C)c1cnc3cc(F)c(-c4cnc(OCCNC(C)C)c(NS(C)(=O)=O)c4)cc3c12 [Example 473, trans-N-(5-(7′-Fluoro-3′-methyl-3-(methylamino)-2′-oxo-2′,3′-dihydrospiro[cyclobutane-1,1′-pyrrolo[2,3-c]quinolin]-8′-yl)-2-(2-(isopropylamino)ethoxy)pyridin-3-yl)methanesulfonamide]
COCCN[C@H]1C[C@@]2(C1)C(=O)N(C)c1cnc3cc(F)c(-c4cnc(OCCNC(C)C)c(NS(C)(=O)=O)c4)cc3c12 [Example 474, trans-N-{5-(7′-Fluoro-3-((2-methoxyethyl)amino)-3′-methyl-2′-oxo-2′,3′-dihydrospiro[cyclobutane-1,1′-pyrrolo[2,3-c]quinolin]-8′-yl)-2-(2-(isopropylamino)ethoxy)pyridin-3-yl)methanesulfonamide]
CN(C)CCCOc1ncc(-c2ccc3ncc4c(c3c2)C2(CN(C(=O)OC(C)(C)C)C2)C(=O)N4C)cc1NS(C)(=O)=O [Example 479, tert-Butyl 8′-(6-(3-(dimethylamino)propoxy)-5-(methylsulfonamido)pyridin-3-yl)-3′-methyl-2′-oxo-2′,3′-dihydrospiro[azetidine-3,1′-pyrrolo[2,3-c]quinoline]-1-carboxylate]
CN1C(=O)C2(CN(CC(F)(F)F)C2)c2c1cnc1ccc(-c3cnc(N4CC(N(C)C)C4)c(NS(C)(=O)=O)c3)cc21 [Example 480]
CC(C)NCCOc1ncc(-c2cc3c4c(cnc3cc2F)N(C)C(=O)C42CN(C)C2)cc1NS(C)(=O)=O [Example 481, N-(5-(7′-Fluoro-1,3′-dimethyl-2′-oxo-2′,3′-dihydrospiro[azetidine-3,1′-pyrrolo[2,3-c]quinolin]-8′-yl)-2-(2-(isopropylamino)ethoxy)pyridin-3-yl)methanesulfonamide hydrochloride]
CCN1CC2(C1)C(=O)N(C)c1cnc3cc(F)c(-c4cnc(OCCNC(C)C)c(NS(C)(=O)=O)c4)cc3c12 [Example 482, N-(5-(1-Ethyl-7-fluoro-3′-methyl-2′-oxo-2′,3′-dihydrospiro[azetidine-3,1′-pyrrolo[2,3-c]quinolin]-8′-yl)-2-(2-(isopropylamino)ethoxy)pyridin-3-yl)methanesulfonamide]
CCC(C)N1CC2(C1)C(=O)N(C)c1cnc3cc(F)c(-c4cnc(OCCNC(C)C)c(NS(C)(=O)=O)c4)cc3c12 (stereo not drawn) [Example 487, N-(5-(1-(sec-Butyl)-7′-fluoro-3′-methyl-2′-oxo-2′,3′-dihydrospiro[azetidine-3,1′-pyrrolo[2,3-c]quinolin]-8′-yl)-2-(2-(isopropylamino)ethoxy)pyridin-3-yl)methanesulfonamide]
CCCN1CC2(C1)C(=O)N(C)c1cnc3cc(F)c(-c4cnc(OCCNC(C)C)c(NS(C)(=O)=O)c4)cc3c12 [Example 488, N-(5-(7′-Fluoro-3′-methyl-2′-oxo-1-propyl-2′,3′-dihydrospiro[azetidine-3,1′-pyrrolo[2,3-c]quinolin]-8′-yl)-2-(2-(isopropylamino)ethoxy)pyridin-3-yl)methanesulfonamide]
CCCCN1CC2(C1)C(=O)N(C)c1cnc3cc(F)c(-c4cnc(OCCNC(C)C)c(NS(C)(=O)=O)c4)cc3c12 [Example 489, N-(5-(1-butyl-7′-fluoro-3′-methyl-2′-oxo-2′,3′-dihydrospiro[azetidine-3,1′-pyrrolo[2,3-c]quinolin]-8′-yl)-2-(2-(isopropylamino)ethoxy)pyridin-3-yl)methanesulfonamide]
CCC(CC)N1CC2(C1)C(=O)N(C)c1cnc3cc(F)c(-c4cnc(OCCNC(C)C)c(NS(C)(=O)=O)c4)cc3c12 [Example 490, N-(5-(7′-Fluoro-3′-methyl-2′-oxo-1-(pentan-3-yl)-2′,3′-dihydrospiro[azetidine-3,1′-pyrrolo[2,3-c]quinolin]-8′-yl)-2-(2-(isopropylamino)ethoxy)pyridin-3-yl)methanesulfonamide]
CC(C)CN1CC2(C1)C(=O)N(C)c1cnc3cc(F)c(-c4cnc(OCCNC(C)C)c(NS(C)(=O)=O)c4)cc3c12 [Example 491, N-(5-(7′-Fluoro-1-isobutyl-3′-methyl-2′-oxo-2′,3′-dihydrospiro[azetidine-3,1′-pyrrolo[2,3-c]quinolin]-8′-yl)-2-(2-(isopropylamino)ethoxy)pyridin-3-yl)methanesulfonamide]
CC(C)NCCOc1ncc(-c2cc3c4c(cnc3cc2F)N(C)C(=O)C42CN([C@@H](C)c3ccccc3)C2)cc1NS(C)(=O)=O [Example 493, (S)-N-(5-(7′-Fluoro-3′-methyl-2′-oxo-1-(1-phenylethyl)-2′,3′-dihydrospiro [azetidine-3,1′-pyrrolo[2,3-c]quinolin]-8′-yl)-2-(2-(isopropylamino)ethoxy)pyridin-3-yl)methanesulfonamide]
CC(C)NCCOc1ncc(-c2cc3c4c(cnc3cc2F)N(C)C(=O)C42CN(Cc3ccccc3)C2)cc1NS(C)(=O)=O [Example 495, N-(5-(1-Benzyl-7-fluoro-3′-methyl-2′-oxo-2′,3′-dihydrospiro[azetidine-3,1′-pyrrolo[2,3-c]quinolin]-8′-yl)-2-(2-(isopropylamino)ethoxy)pyridin-3-yl)methanesulfonamide]
CC(C)NCCOc1ncc(-c2cc3c4c(cnc3cc2F)N(C)C(=O)C42CN(C3CC3)C2)cc1NS(C)(=O)=O [Example 496, N-(5-(1-Cyclopropyl-7′-fluoro-3′-methyl-2′-oxo-2′,3′-dihydrospiro[azetidine-3,1′-pyrrolo[2,3-c]quinolin]-8′-yl)-2-(2-(isopropylamino)ethoxy)pyridin-3-yl)methanesulfonamide]
CC(C)NCCOc1ncc(-c2cc3c4c(cnc3cc2F)N(C)C(=O)C42CN(C3CCCCC3)C2)cc1NS(C)(=O)=O [Example 499, N-(5-(1-Cyclohexyl-7′-fluoro-3′-methyl-2′-oxo-2′,3′-dihydrospiro[azetidine-3,1′-pyrrolo[2,3-c]quinolin]-8′-yl)-2-(2-(isopropylamino)ethoxy)pyridin-3-yl)methanesulfonamide]

IC50, > 0.1 µM:
CC(C)NCCOc1ncc(-c2cc3c(cc2F)ncc2c3[C@]3(C[C@@H](N4CCOCC4)C3)C(=O)N2C)cc1NS(C)(=O)=O [Example 472, trans-N-(5-(7′-Fluoro-3′-methyl-3-morpholino-2′-oxo-2′,3′-dihydrospiro[cyclobutane-1,1′-pyrrolo[2,3-c]quinolin]-8′-yl)-2-(2-(isopropylamino)ethoxy)pyridin-3-yl)methanesulfonamide]
CC(C)NCCOc1ncc(-c2cc3c(cc2F)ncc2c3[C@]3(C[C@H](n4ccccc4=O)C3)C(=O)N2C)cc1NS(C)(=O)=O [Example 475, cis-N-(5-(7′-Fluoro-3′-methyl-2′-oxo-3-(2-oxopyridin-1(2H)-yl)-2′,3′-dihydrospiro[cyclobutane-1,1′-pyrrolo[2,3-c]quinolin]-8′-yl)-2-(2-(isopropylamino)ethoxy)pyridin-3-yl)methanesulfonamide]
CC(C)NCCOc1ncc(-c2cc3c(cc2F)ncc2c3[C@]3(C[C@H](n4cccn4)C3)C(=O)N2C)cc1NS(C)(=O)=O [Example 476, cis-N-(5-(7′-Fluoro-3′-methyl-2′-oxo-3-(1H-pyrazol-1-yl)-2′,3′-dihydrospiro[cyclobutane-1,1′-pyrrolo[2,3-c]quinolin]-8′-yl)-2-(2-(isopropylamino)ethoxy)pyridin-3-yl)methanesulfonamide]
CC(C)CCN1CC2(C1)C(=O)N(C)c1cnc3cc(F)c(-c4cnc(OCCNC(C)C)c(NS(C)(=O)=O)c4)cc3c12 [Example 492, N-(5-(7′-Fluoro-1-isopentyl-3′-methyl-2′-oxo-2′,3′-dihydrospiro[azetidine-3,1′-pyrrolo[2,3-c]quinolin]-8′-yl)-2-(2-(isopropylamino)ethoxy)pyridin-3-yl)methanesulfonamide]
CC(C)NCCOc1ncc(-c2cc3c4c(cnc3cc2F)N(C)C(=O)C42CN([C@H](C)c3ccccc3)C2)cc1NS(C)(=O)=O [Example 494]
